Here are results for 26 molecules from ChEMBL document CHEMBL6127100, “Plant based steroidal and triterpenoid sapogenins: Chemistry on diosgenin and biological aspects” (Eur J Med Chem, 2024).

Assay type in all cases: functional, cell-based
One assay deals with A-431. Description: Antiproliferative activity against human A-431 cells assessed as reduction in cells assessed as reduction in cell growth incubated for 72 hrs by MTT assay. To be noted: A-431, 72 h.
For the next assay, the system named is NCI-H1975. Description: Antiproliferative activity against human NCI-H1975 cells assessed as reduction in cells assessed as reduction in cell growth incubated for 72 hrs by MTT assay. To be noted: NCI-H1975, 72 h. For orientation: Tetrazolium assays rely on reduction of a dye to a coloured formazan, in cell work by metabolically active cells.
The next assay deals with ASPC1. The experiment in a line: Antiproliferative activity against human ASPC1 cells assessed as reduction in cells assessed as reduction in cell growth incubated for 72 hrs by MTT assay. To be noted: ASPC1, 72 h.
A further assay concerns A549. The experiment in a line: Antiproliferative activity against human A549 cells assessed as reduction in cells assessed as reduction in cell growth incubated for 72 hrs by MTT assay. To be noted: A549, 72 h.
The subject of a further assay is HepG2. Description: Antiproliferative activity against human HepG2 cells assessed as reduction in cell viability measured for 24 hrs by MTT assay. To be noted: HepG2, 24 h.
Another assay has as its system HeLa. Description: Antiproliferative activity against human HeLa cells assessed as reduction in cell viability measured for 24 hrs by MTT assay.
A further assay has as its system HCT-116. The experiment in a line: Antiproliferative activity against human HCT-116 cells assessed as reduction in cells assessed as reduction in cell growth incubated for 72 hrs by MTT assay. Conditions: HCT-116, 72 h.

Molecules are shown by their SMILES. Where only a bound is given, the exact number is not on record here.

Regarding `C[C@@H]1CC[C@@]2(OC1)O[C@H]1C[C@H]3[C@@H]4CC=C5C[C@@H](OC(=O)CCCC[N+]6(C)CCCC6)CC[C@]5(C)[C@H]4CC[C@]3(C)[C@H]1[C@@H]2C`, the IC50 in the assay on A-431 was determined as 4.05 µM; with NCI-H1975, 3.44 µM; in the assay with ASPC1, 2.15 µM; in the assay with A549 it was 4.47 µM.

For the molecule `C[C@@H]1CC[C@@]2(OC1)O[C@H]1C[C@H]3[C@@H]4CC=C5C[C@@H](OC(=O)CCCC[N+]67CCC(CC6)C(O)C7)CC[C@]5(C)[C@H]4CC[C@]3(C)[C@H]1[C@@H]2C` (some centres undefined), the half-maximal inhibitory concentration (IC50) is 4.14 µM in the assay on A-431, 1.68 µM in the assay with NCI-H1975, 4.46 µM in the assay with ASPC1 and 4.07 µM in the assay on A549.

On to `C[C@H](CC[C@H]1O[C@H]2C[C@H]3[C@@H]4CC=C5C[C@@H](OC6=C(Cl)C(=O)c7ccccc7C6=O)CC[C@]5(C)[C@H]4CC[C@]3(C)[C@H]2[C@@H]1C)COC1=C(Cl)C(=O)c2ccccc2C1=O`, for which the IC50 in the assay on HepG2 came out at 1.76 µM; with HeLa, 6.27 µM.

For the molecule `C[C@H](CC[C@H]1O[C@H]2C[C@H]3[C@@H]4CC=C5C[C@@H](OC6=C(Cl)C(=O)c7ccccc7C6=O)CC[C@]5(C)[C@H]4CC[C@]3(C)[C@H]2[C@@H]1C)CO[Si](C)(C)C(C)(C)C`, the IC50 in the assay with HepG2 stood at 3.52 µM; in the assay with HeLa, 9.69 µM.

Take `C[C@@H](CO)CC[C@H]1O[C@H]2C[C@H]3[C@@H]4CC=C5C[C@@H](OC6=C(Cl)C(=O)c7ncccc7C6=O)CC[C@]5(C)[C@H]4CC[C@]3(C)[C@H]2[C@@H]1C`: the IC50 with HeLa turned out to be 6.36 µM.

Take `C[C@@H]1CC[C@@]2(OC1)O[C@H]1C[C@H]3[C@@H]4CC=C5C[C@@H]([N+](C)(CCCCN6C(=O)c7ccccc7C6=O)CCCCN6C(=O)c7ccccc7C6=O)CC[C@]5(C)[C@H]4CC[C@]3(C)[C@H]1[C@@H]2C`: the IC50 with A-431 was determined as 4.33 µM; with NCI-H1975, 9.17 µM; in the assay on ASPC1, 4.78 µM; in the assay on HCT-116, 3.23 µM; in the assay on A549, 10.7 µM.

`C#CC[N+](C)(CC#C)[C@H]1CC[C@@]2(C)C(=CC[C@H]3[C@@H]4C[C@@H]5O[C@]6(CC[C@@H](C)CO6)[C@@H](C)[C@@H]5[C@@]4(C)CC[C@@H]32)C1`: the IC50 in the assay with A-431 came out at 14.5 µM; in the assay with NCI-H1975, 5.92 µM; in the assay on ASPC1, 4.41 µM; with HCT-116 it was 4.71 µM; with A549, 12.7 µM.

As for `C[C@@H]1CC[C@@]2(OC1)O[C@H]1C[C@H]3[C@@H]4CC=C5C[C@@H](OC(=O)CCCC[N+]6(CCO)CCCCC6)CC[C@]5(C)[C@H]4CC[C@]3(C)[C@H]1[C@@H]2C`, the IC50 with A-431 amounted to 4.14 µM; in the assay on NCI-H1975, 1.68 µM; in the assay on ASPC1 it was 6.07 µM; in the assay on A549, 4.68 µM.

`C[C@@H]1CC[C@@]2(OC1)O[C@H]1C[C@H]3[C@@H]4CC=C5C[C@@H](OC(=O)CCCC[N+]6(CCO)CCOCC6)CC[C@]5(C)[C@H]4CC[C@]3(C)[C@H]1[C@@H]2C`: the 50% inhibitory concentration (IC50) with A-431 was determined as 6.21 µM; in the assay on NCI-H1975, 3.36 µM; with ASPC1 it was 11.1 µM; in the assay on A549, 12.6 µM.

Consider `C[C@@H]1CC[C@@]2(OC1)O[C@H]1C[C@H]3[C@@H]4CC=C5C[C@@H]([N+](C)(C)C)CC[C@]5(C)[C@H]4CC[C@]3(C)[C@H]1[C@@H]2C`, for which the IC50 turned out to be 6.38 µM in the assay with A-431; 19 µM in the assay with NCI-H1975; 9.44 µM with ASPC1; 9.67 µM in the assay with HCT-116; 15.2 µM in the assay with A549.

In the case of `C[C@@H]1CC[C@@]2(OC1)O[C@H]1C[C@H]3[C@@H]4CC=C5C[C@@H]([N+]6(C)CCCC6)CC[C@]5(C)[C@H]4CC[C@]3(C)[C@H]1[C@@H]2C`, the IC50 with A-431 was found to be 10.4 µM; in the assay on NCI-H1975, 11.2 µM; in the assay with ASPC1, 5.54 µM; in the assay with HCT-116 it was 3.94 µM; in the assay on A549, 10.5 µM.

As to `C[C@@H]1CC[C@@]2(OC1)O[C@H]1C[C@H]3[C@@H]4CC=C5C[C@@H](OC(=O)CCCC[N+](C)(C)Cc6ccccc6)CC[C@]5(C)[C@H]4CC[C@]3(C)[C@H]1[C@@H]2C`, the IC50 in the assay with A-431 is 1.85 µM; in the assay with NCI-H1975 it was 1.51 µM; in the assay with ASPC1 it was 7.12 µM; with A549 it was 5.3 µM.

`C=C[N+](C)(C=C)[C@H]1CC[C@@]2(C)C(=CC[C@H]3[C@@H]4C[C@@H]5O[C@]6(CC[C@@H](C)CO6)[C@@H](C)[C@@H]5[C@@]4(C)CC[C@@H]32)C1`: the IC50 in the assay on A-431 is 4.01 µM; in the assay on NCI-H1975, 5.96 µM; in the assay with ASPC1, 4.06 µM; with HCT-116, 5 µM; in the assay with A549, 6.64 µM.

`Cc1ccc2c(n1)C(=O)C(Cl)=C(O[C@H]1CC[C@@]3(C)C(=CC[C@H]4[C@@H]5C[C@@H]6O[C@H](CC[C@@H](C)CO[Si](C)(C)C(C)(C)C)[C@@H](C)[C@@H]6[C@@]5(C)CC[C@@H]43)C1)C2=O`: the figures for the IC50 with HepG2 and with HeLa were 3.55 µM and 9.69 µM, respectively.

`CCCC[N+](C)(CCCC)[C@H]1CC[C@@]2(C)C(=CC[C@H]3[C@@H]4C[C@@H]5O[C@]6(CC[C@@H](C)CO6)[C@@H](C)[C@@H]5[C@@]4(C)CC[C@@H]32)C1`: the IC50 is 3.87 µM with A-431; 6.39 µM with NCI-H1975; less than 5 µM in the assay with ASPC1; 1.03 µM in the assay on HCT-116; 2.42 µM in the assay on A549.

On to `COCC[N+](C)(CCOC)[C@H]1CC[C@@]2(C)C(=CC[C@H]3[C@@H]4C[C@@H]5O[C@]6(CC[C@@H](C)CO6)[C@@H](C)[C@@H]5[C@@]4(C)CC[C@@H]32)C1`, for which the IC50 was 2.85 µM with A-431; 5.09 µM in the assay with NCI-H1975; 55.3 µM with ASPC1; greater than 1 µM in the assay on HCT-116; 6.33 µM in the assay on A549.

Regarding `C[C@@H]1CC[C@@]2(OC1)O[C@H]1C[C@H]3[C@@H]4CC=C5C[C@@H](OC(=O)CCCC[N+]6(C)CCCCC6)CC[C@]5(C)[C@H]4CC[C@]3(C)[C@H]1[C@@H]2C`, the IC50 came out at 3.03 µM with A-431, 5.08 µM in the assay with NCI-H1975, 2.83 µM with ASPC1 and 5.83 µM in the assay on A549.

Turning to `C[C@@H]1CC[C@@]2(OC1)O[C@H]1C[C@H]3[C@@H]4CC=C5C[C@@H]([N+](C)(C/C=C/c6ccccc6)C/C=C/c6ccccc6)CC[C@]5(C)[C@H]4CC[C@]3(C)[C@H]1[C@@H]2C`, the IC50 with A-431 was less than 2.5 µM; in the assay on NCI-H1975, 5.73 µM; with ASPC1, less than 5 µM; in the assay on HCT-116 it was 0.34 µM; in the assay on A549 it was 9.86 µM.

With `CCCC[N+](C)(C)CCCCC(=O)O[C@H]1CC[C@@]2(C)C(=CC[C@H]3[C@@H]4C[C@@H]5O[C@]6(CC[C@@H](C)CO6)[C@@H](C)[C@@H]5[C@@]4(C)CC[C@@H]32)C1`, the IC50 in the assay on A-431 amounted to 3.11 µM; in the assay on NCI-H1975 it was 3.68 µM; in the assay with ASPC1 it was 2.77 µM; in the assay with A549, 2.81 µM.

`C[C@@H]1CC[C@@]2(OC1)O[C@H]1C[C@H]3[C@@H]4CC=C5C[C@@H]([N+](C)(CCO)CCO)CC[C@]5(C)[C@H]4CC[C@]3(C)[C@H]1[C@@H]2C`: the IC50 with A-431 is 3.26 µM; in the assay with ASPC1, 17.8 µM; with HCT-116 it was 11.5 µM; in the assay on A549 it was 5.35 µM.

With `C[C@@H]1CC[C@@]2(OC1)O[C@H]1C[C@H]3[C@@H]4CC=C5C[C@@H](OC(=O)CCCC[N+]6(C)CCOCC6)CC[C@]5(C)[C@H]4CC[C@]3(C)[C@H]1[C@@H]2C`, the 50% inhibitory concentration (IC50) turned out to be 5.88 µM in the assay with A-431, 5.45 µM with NCI-H1975, 8.48 µM with ASPC1 and 5.83 µM with A549.

`C=CC[N+](CC=C)(CC=C)CCCCC(=O)O[C@H]1CC[C@@]2(C)C(=CC[C@H]3[C@@H]4C[C@@H]5O[C@]6(CC[C@@H](C)CO6)[C@@H](C)[C@@H]5[C@@]4(C)CC[C@@H]32)C1`: the half-maximal inhibitory concentration (IC50) in the assay on A-431 was 2.55 µM; in the assay on NCI-H1975, 0.78 µM; in the assay with ASPC1, 1.23 µM; in the assay on A549 it was 1.84 µM.

Consider `CC[N+](CC)(CC)CCCCC(=O)O[C@H]1CC[C@@]2(C)C(=CC[C@H]3[C@@H]4C[C@@H]5O[C@]6(CC[C@@H](C)CO6)[C@@H](C)[C@@H]5[C@@]4(C)CC[C@@H]32)C1`, for which the IC50 with A-431 was determined as 3.46 µM; in the assay on NCI-H1975, 3.23 µM; in the assay on ASPC1, 6.56 µM; in the assay with A549, 2.52 µM.

As for `C[C@@H]1CC[C@@]2(OC1)O[C@H]1C[C@H]3[C@@H]4CC=C5C[C@@H]([N+](C)(C)CC#N)CC[C@]5(C)[C@H]4CC[C@]3(C)[C@H]1[C@@H]2C`, the IC50 in the assay on A-431 is 8.25 µM; in the assay on NCI-H1975, 20.6 µM; in the assay with ASPC1 it was 19.3 µM; with HCT-116 it was 9.74 µM.

In the case of `C[C@@H]1CC[C@@]2(OC1)O[C@H]1C[C@H]3[C@@H]4CC=C5C[C@@H](OC(=O)CCCC[N+](C)(C)c6ccccc6)CC[C@]5(C)[C@H]4CC[C@]3(C)[C@H]1[C@@H]2C`, the IC50 in the assay on A-431 came out at 3.52 µM; in the assay with NCI-H1975 it was 4.05 µM; in the assay on ASPC1, 4.18 µM; with A549, 6.63 µM.

Turning to `C[C@@H]1CC[C@@]2(OC1)O[C@H]1C[C@H]3[C@@H]4CC=C5C[C@@H]([N+](C)(CC6CC6)CC6CC6)CC[C@]5(C)[C@H]4CC[C@]3(C)[C@H]1[C@@H]2C`, the 50% inhibitory concentration (IC50) was found to be 4.71 µM in the assay on A-431; 5.32 µM in the assay with NCI-H1975; 4.07 µM in the assay with ASPC1; 1.12 µM in the assay with HCT-116; 2.69 µM with A549.

As usually defined, the IC50 is the point on the concentration scale where inhibition reaches its midpoint.
